Results reported in patent US20250099475A1, “METHODS OF TREATING HYPERTENSION BY PERIODIC SUPPRESSION OF ALDOSTERONE SYNTHASE” (Mineralys Therapeutics, Inc., priority 2022, published 2025).

Experiments:
hypertensive subjects = assay: Example 4 dose-ranging study: 24-hour ambulatory blood pressure monitoring (ABPM); type: in vivo, human; conditions: for Change in ABPM (24 h) BPdias, Mean (sem) / Change in ABPM (24 h) BPmcan, Mean (sem) / Change in ABPM (24 h) BPsys, Mean (sem) / Change in ABPM (night) BPsys, Mean (sem) / Subjects with nighttime Dip 10-20% / Subjects with nighttime Dip <10% / Subjects with nighttime Dip >20%: Week 8, Full Analysis Set
[1] = target: T1, CYP 11β2 beta hydroxylase (Homo sapiens, UniProt P19099); assay: PKPD modeling of SAD study data: time above IC50; type: in vivo; conditions: aldosterone
T1 construct: estimated based on PKPD modeling of data from the SAD study; from tissue; host or cells: adrenal cortex of human study subjects (in vivo)
T1 sequence (P19099 25-503): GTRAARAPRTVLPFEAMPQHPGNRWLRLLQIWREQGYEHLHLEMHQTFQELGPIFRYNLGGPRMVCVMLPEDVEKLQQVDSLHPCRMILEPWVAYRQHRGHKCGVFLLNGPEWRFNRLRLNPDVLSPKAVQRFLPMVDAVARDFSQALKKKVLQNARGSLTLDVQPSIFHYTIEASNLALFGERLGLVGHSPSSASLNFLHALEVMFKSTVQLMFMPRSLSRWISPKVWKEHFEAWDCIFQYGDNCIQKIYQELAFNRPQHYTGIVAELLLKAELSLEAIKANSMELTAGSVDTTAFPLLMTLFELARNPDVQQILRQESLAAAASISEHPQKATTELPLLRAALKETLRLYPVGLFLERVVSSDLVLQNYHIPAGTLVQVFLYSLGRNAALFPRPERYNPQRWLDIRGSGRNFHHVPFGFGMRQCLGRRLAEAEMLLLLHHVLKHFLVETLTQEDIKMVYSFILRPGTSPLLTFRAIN
Procedure: A randomized, double-blinded, placebo-controlled study was conducted in which 116 patients were randomized and 87 received Compound A HBr.
A single ascending dose (SAD) study was conducted with the following dosing amounts tested: • (a) 5 mg • (b) 10 mg • (c) 20 mg • (d) 50 mg • (e) 100 mg • (f) 200 mg • (g) 400 mg • (h) 800 mg.
The IC50 of inhibition of CYP […] by Compound A HBr and the time above IC50 for each dosing amount were estimated based on PKPD modeling of data from the SAD study.

human CYP11B2 (hCYP11B2) = target: T2, human CYP11B2 (hCYP11B2) (Homo sapiens, UniProt P19099); assay: Assay of hCYP11B2 inhibition (11-DOC to aldosterone); type: biochemical; conditions: mitochondrial fraction of V79 cells stably expressing hCYP11B2; substrate 11-DOC; read-out: Inhibition constant (Ki) hCYP11B2
T2 construct: expressed in transfected cells; host or cells: V79 cells (mitochondrial fraction)
Procedure: The inhibitory effects of Compound A on human CYP 11B1 (hCYP11B1) and human CYP11B2 (hCYP11B2) enzyme activity were evaluated by determining the enzymatic conversion rates of 11-deoxycortisol to cortisol for hCYP11B1 and 11-DOC to aldosterone for hCYP11B2.

CC(=O)N[C@H]1CC[C@H](NC(=O)CN2CCN(c3nncc(-c4ccc(C)cc4)n3)CC2)CC1 [Compound A HBr]
overnight reduction of systolic BP (24 h ambulatory) (hypertensive subjects; 100 mg QD cohort): −11.5+/−2.9 mmHg
Change in ABPM (24 h) BPdias, Mean (sem) (hypertensive subjects; 12.5 mg BID): −5.4 (2.2) mmHg
Change in ABPM (24 h) BPmcan, Mean (sem) (hypertensive subjects; 12.5 mg BID): −5.5 (2.7) mmHg
Change in ABPM (24 h) BPsys, Mean (sem) (hypertensive subjects; 12.5 mg BID): −5.7 (3.2) mmHg
Change in ABPM (night) BPsys, Mean (sem) (hypertensive subjects; 12.5 mg BID): −7.5 (4.0) mmHg
Subjects with nighttime Dip 10-20% (hypertensive subjects; 12.5 mg BID): 31%
Subjects with nighttime Dip <10% (hypertensive subjects; 12.5 mg BID): 69%
Subjects with nighttime Dip >20% (hypertensive subjects; 12.5 mg BID): 0%
Change in ABPM (24 h) BPdias, Mean (sem) (hypertensive subjects; 12.5 mg QD): −2.3 (1.7) mmHg
Change in ABPM (24 h) BPmcan, Mean (sem) (hypertensive subjects; 12.5 mg QD): −3.7 (2.6) mmHg
Change in ABPM (24 h) BPsys, Mean (sem) (hypertensive subjects; 12.5 mg QD): −5.2 (3.4) mmHg
Change in ABPM (night) BPsys, Mean (sem) (hypertensive subjects; 12.5 mg QD): −5.4 (4.2) mmHg
Subjects with nighttime Dip 10-20% (hypertensive subjects; 12.5 mg QD): 36%
Subjects with nighttime Dip <10% (hypertensive subjects; 12.5 mg QD): 64%
Subjects with nighttime Dip >20% (hypertensive subjects; 12.5 mg QD): 0%
Change in ABPM (24 h) BPdias, Mean (sem) (hypertensive subjects; 25 mg BID): −6.1 (1.8) mmHg
Change in ABPM (24 h) BPmcan, Mean (sem) (hypertensive subjects; 25 mg BID): −7.4 (2.3) mmHg
Change in ABPM (24 h) BPsys, Mean (sem) (hypertensive subjects; 25 mg BID): −8.7 (2.9) mmHg
Change in ABPM (night) BPsys, Mean (sem) (hypertensive subjects; 25 mg BID): −6.0 (2.8) mmHg
Subjects with nighttime Dip 10-20% (hypertensive subjects; 25 mg BID): 17%
Subjects with nighttime Dip <10% (hypertensive subjects; 25 mg BID): 79%
Subjects with nighttime Dip >20% (hypertensive subjects; 25 mg BID): 4%
Change in ABPM (24 h) BPdias, Mean (sem) (hypertensive subjects; 50 mg QD): −3.0 (1.6) mmHg
Change in ABPM (24 h) BPmcan, Mean (sem) (hypertensive subjects; 50 mg QD): −2.4 (2.2) mmHg
Change in ABPM (24 h) BPsys, Mean (sem) (hypertensive subjects; 50 mg QD): −1.8 (3.0) mmHg
Change in ABPM (night) BPsys, Mean (sem) (hypertensive subjects; 50 mg QD): 2.4 (4.2) mmHg
Subjects with nighttime Dip 10-20% (hypertensive subjects; 50 mg QD): 21%
Subjects with nighttime Dip <10% (hypertensive subjects; 50 mg QD): 78%
Subjects with nighttime Dip >20% (hypertensive subjects; 50 mg QD): 0%
Change in ABPM (24 h) BPdias, Mean (sem) (hypertensive subjects; 100 mg QD): −5.9 (1.5) mmHg
Change in ABPM (24 h) BPmcan, Mean (sem) (hypertensive subjects; 100 mg QD): −7.4 (1.8) mmHg
Change in ABPM (24 h) BPsys, Mean (sem) (hypertensive subjects; 100 mg QD): −8.9 (2.2) mmHg
Change in ABPM (night) BPsys, Mean (sem) (hypertensive subjects; 100 mg QD): −11.5 (2.5) mmHg
Subjects with nighttime Dip 10-20% (hypertensive subjects; 100 mg QD): 46%
Subjects with nighttime Dip <10% (hypertensive subjects; 100 mg QD): 46%
Subjects with nighttime Dip >20% (hypertensive subjects; 100 mg QD): 8%
% 24 hr above IC50 ([1]; 12.5 mg BID): 25%
% 24 hr above IC50 ([1]; 12.5 mg QD): 8%
% 24 hr above IC50 ([1]; 25 mg BID): 52%
% 24 hr above IC50 ([1]; 50 mg QD): 38%
% 24 hr above IC50 ([1]; 100 mg QD): 56%

CC(=O)N[C@H]1CC[C@H](NC(=O)CN2CCN(c3nncc(-c4ccc(C)cc4)n3)CC2)CC1 [Compound A]
Ki (human CYP11B2 (hCYP11B2)): 1.27 nM
